# Where two headings read alike, the source gives them in different places.
# Legend:
# BSM cells [1] = assay: BSM cell growth curves (cell counting), doubling time and proliferation; assay type: cell-based, human; settings: for doubling time of cell growth: glucose medium + 50 μg/liter ethidium bromide or 3 mM cyclic GMP; for proliferation of BSM cells: glucose medium + ethidium bromide or cyclic GMP
# Experimental: (§1) To analyze the mitochondrial ultrastructure, BSM cells were growth arrested, as described in the previous section, for 6 d. Three million cells were then collected and centrifuged at 400 g for 5 min. Cell pellets were fixed in 2.5% glutaraldehyde for 2 h at 4° C. and processed for electron microscopy, as described in the previous section. Growth curves were built to assess the role of mitochondria in cell proliferation. For this purpose, 25,000 BSM cells were plated on 75-cm^2 flasks and cultured with 10% FCS-DME containing either 4.5 g/liter galactose or 4.5 g/liter glucose. In another set of experiments, we investigated the effects of 50 μg/liter ethidium bromide (Qbiogene) for up to 33 d, 1.3 g/liter cyclic cGMP (3 mM; Sigma-Aldrich) for up to 6 d, or 0.5 g/liter D600, i.e., methoxyverapamil or gallopamil (1 μM; Sigma-Aldrich) for up to 2 d in 10% FCS-DME containing 4.5 g/liter glucose. For these latter experiments, medium was changed every 24 h, and, at the indicated time, BSM cells were harvested by trypsinization and counted in triplicate using a cytometer.
# U937, L6, and PC12 = settings: various cell lines, including U937, L6, and PC12; cited from earlier work
# BSM cells [2] = assay: BrdU incorporation (DNA synthesis) in BSM cells; assay type: cell-based, human; settings: 10% FCS-DME glucose, ethidium bromide or cyclic GMP 24 h
# Experimental: Growth-arrested BSM cells were cultured in 96-well plates for 24 h and stimulated with 10% FCS-DME containing glucose, galactose, ethidium bromide, or cyclic GMP for 24 h or containing D600 for 48 h, as described above. Control BSM cells remained in serum-deprived DME. DNA synthesis was measured using the BrdU kit according to the manufacturer's instructions (Roche). In brief, BSM cells were incubated with 10 μM BrdU for 2 h at 37° C. and fixed for 20 min at room temperature. Cells were denaturized for 30 min and incubated with the anti-BrdU antibody for 2 h at room temperature. Absorbance was measured at 370 nm in a microplate reader in triplicate. Results are expressed as a normalized ratio of BrdU incorporation, i.e. absorbance for test condition divided by absorbance for control serum-deprived condition.
# porin = assay: Mitochondrial mass by porin content (Western blot) in BSM cells; assay type: cell-based, human
# Experimental: as §1
# Whole lysates from BSM cells were collected using 1% Triton X-100 lysis buffer in the presence of 2 mM Na orthovanadate, 1 mM EDTA, 50 μg/ml aprotinin, 100 μM leupeptin, 1 mM 1.4 Dithio-DL-Treitol, and 1 mM amino-ethyl-benzenesulfonyl fluoride hydrochloride (all from Sigma-Aldrich). Cellular extracts were reduced with mercaptoethanol, subjected to electrophoresis on a 10% acrylamide reducing gel, and transferred to PVDF membranes (Immobilon TM-P; Millipore). The immunoblots were then developed using mouse anti-human porin (MitoSciences), mouse anti-human α-actin (Sigma-Aldrich), rabbit anti-human phospho-CaMK-IV, rabbit anti-human PGC-1α, rabbit anti-human NRF-1, or rabbit anti-human mitochondrial transcription factor A (mtTFA; all purchased from Santa Cruz Biotechnology, Inc.) for 14 h at 4° C. For amplification, biotinylated goat secondary antibody anti-mouse IgG (Bio-Rad Laboratories) or anti-rabbit IgG (Santa Cruz Biotechnology, Inc.) for 2 h at room temperature and a streptavidin-biotinylated horseradish peroxidase complex (Dako) were used. […] Blot images were acquired using BioCaptMW (Thermo Fisher Scientific), and band densities were quantified using ImageJ software.
# endothelial cells = settings: cited from earlier work
# [3] = test system: vascular smooth muscle cells; settings: mesangial cells and various fibroblasts; cited from earlier work
# BSM cells [4] = assay: Microspectrofluorimetry of intracellular calcium (indo-1) after acetylcholine stimulation; assay type: cell-based, human; settings: asthmatic BSM cells; 10^-5 M acetylcholine; 1 μM D600 with 2 mM Ca2+, or 400 μM EGTA without extracellular calcium
# Experimental: Change in growth-arrested BSM cell intracellular calcium concentration ([Ca^2+]i), was assessed using the Ca^2+-sensitive probe indo-1, as previously described (Berger et al., J. Appl. Physiol. 91:995-1003 (2001); Trian et al., Am. J. Respir. Cell Mol. Biol. 34:49-55 (2006)). In brief, cells were loaded with indo-1 (Calbiochem) and mounted in a perfusion chamber continuously perfused with phosphate salt solution containing either 2 mM Ca2+ in the absence or presence of 1 μM D600, or 400 μM EGTA (Sigma-Aldrich) in the absence of extracellular calcium. BSM cells were stimulated with 10^−5 M acetylcholine or histamine (both from Sigma-Aldrich). Individual cell calcium levels were monitored continuously. Results were expressed as the mean±the SEM of resting or peak of [Ca^2+]i rises (in […]) and area under the curves (nanomoles/second). Experiments were carried out at room temperature (22-25° C.).
# mtTFA = assay: Western blot of mtTFA in BSM cells; assay type: cell-based, human; settings: asthmatic BSM cells; 1 μM D600 for 48 h
# Experimental: as §1, with “In another set of experiments, we investigated the effects of 50 μg/liter ethidium bromide (Qbiogene) for up to 33 d, 1.3 g/liter cyclic cGMP (3 mM; Sigma-Aldrich) for up to 6 d, or 0.5 g/liter D600, i.e., methoxyverapamil or gallopamil (1 μM; Sigma-Aldrich) for up to 2 d in 10% FCS-DME containing 4.5 g/liter glucose.” left out
# (§2) Whole lysates from BSM cells were collected using 1% Triton X-100 lysis buffer in the presence of 2 mM Na orthovanadate, 1 mM EDTA, 50 μg/ml aprotinin, 100 μM leupeptin, 1 mM 1.4 Dithio-DL-Treitol, and 1 mM amino-ethyl-benzenesulfonyl fluoride hydrochloride (all from Sigma-Aldrich). […] Blot images were acquired using BioCaptMW (Thermo Fisher Scientific), and band densities were quantified using ImageJ software.
# CaMK-IV = assay: Western blot of phosphorylated CaMK-IV in BSM cells; assay type: cell-based, human; settings: asthmatic BSM cells; 1 μM D600
# Experimental: as §1, with “In another set of experiments, we investigated the effects of 50 μg/liter ethidium bromide (Qbiogene) for up to 33 d, 1.3 g/liter cyclic cGMP (3 mM; Sigma-Aldrich) for up to 6 d, or 0.5 g/liter D600, i.e., methoxyverapamil or gallopamil (1 μM; Sigma-Aldrich) for up to 2 d in 10% FCS-DME containing 4.5 g/liter glucose.” left out
# as §2
# NRF-1 = assay: Western blot of NRF-1 in BSM cells; assay type: cell-based, human; settings: asthmatic BSM cells; 1 μM D600 for 48 h
# Experimental: as §1, with “In another set of experiments, we investigated the effects of 50 μg/liter ethidium bromide (Qbiogene) for up to 33 d, 1.3 g/liter cyclic cGMP (3 mM; Sigma-Aldrich) for up to 6 d, or 0.5 g/liter D600, i.e., methoxyverapamil or gallopamil (1 μM; Sigma-Aldrich) for up to 2 d in 10% FCS-DME containing 4.5 g/liter glucose.” left out
# as §2
# PGC-1α = assay: Western blot of PGC-1α in BSM cells; assay type: cell-based, human; settings: asthmatic BSM cells; 1 μM D600 for 48 h
# Experimental: as §1, with “In another set of experiments, we investigated the effects of 50 μg/liter ethidium bromide (Qbiogene) for up to 33 d, 1.3 g/liter cyclic cGMP (3 mM; Sigma-Aldrich) for up to 6 d, or 0.5 g/liter D600, i.e., methoxyverapamil or gallopamil (1 μM; Sigma-Aldrich) for up to 2 d in 10% FCS-DME containing 4.5 g/liter glucose.” left out
# as §2
compound,measurement,setting,value
Nc1nc2c(ncn2[C@@H]2O[C@@H]3COP(=O)(O)O[C@H]3[C@H]2O)c(=O)[nH]1 [cyclic GMP],doubling time of cell growth,BSM cells [1]; COPD BSM cells,significantly decreased
same,proliferation of BSM cells,BSM cells [1]; COPD BSM cells,increased
same,doubling time of cell growth,BSM cells [1]; asthmatic BSM cells,had no effect
same,proliferation of BSM cells,BSM cells [1]; asthmatic BSM cells,had no effect
same,doubling time of cell growth,BSM cells [1]; control BSM cells,decreased
same,proliferation of BSM cells,BSM cells [1]; control BSM cells,increased
same,PGC-1α and mitochondrial biogenesis,"U937, L6, and PC12",activate
same,BrdU incorporation,BSM cells [2]; COPD BSM cells,increased
same,BrdU incorporation,BSM cells [2]; control BSM cells,increased
same,mitochondrial content (amount of porin),"porin; COPD BSM cells, ethidium bromide or cyclic GMP 6 d",increased
same,mitochondrial content (amount of porin),"porin; asthmatic BSM cells, ethidium bromide or cyclic GMP 6 d, 1 μM D600 48 h",failed to additionally increase
same,mitochondrial content (amount of porin),"porin; control BSM cells, ethidium bromide or cyclic GMP 6 d",increased
same,proliferation of endothelial cells,endothelial cells,increased
same,proliferation,[3],inhibit
O=C(O)CN(CCOCCOCCN(CC(=O)O)CC(=O)O)CC(=O)O [EGTA],abnormal calcium response (area under the curve) to acetylcholine,BSM cells [4],abolished
"5-[2-(3,4-dimémethoxyphenyl)ethyl-methylamino]-2-propan-2-yl-2-(3,4,5-triméthoxyphenyl)pentanenitrile hydrochloride [D600]",activation of mitochondrial biogenesis through mtTFA,mtTFA,inhibited
same,activation (phosphorylation) of CaMK-IV,CaMK-IV,inhibited
same,abnormal calcium response (area under the curve) to acetylcholine,BSM cells [4],abolished
same,activation of mitochondrial biogenesis through NRF-1,NRF-1,inhibited
same,activation of mitochondrial biogenesis through PGC-α,PGC-1α,inhibited
same,BrdU incorporation,"BSM cells [2]; asthmatic BSM cells, 1 μM D600 48 h",significantly inhibited
same,mitochondrial content (amount of porin),porin,blocks

# From patent US20090318413A1, “BRONCHIAL SMOOTH MUSCLE REMODELING INVOLVES CALCIUM-DEPENDENT ENHANCED MITOCHONDRIAL BIOGENESIS IN ASTHMA” (UNIVERSITE VICTOR SEGALEN BORDEAUX 2, priority 2008, published 2009)
